Read-outs that look alike come from different tables or passages of the source.
Experiments:
[1] = test system: yhcRQP-luxCDABE gene fusion; experiment: Bioluminescence activation test in strain DPD2411, LB medium pH 7.0; type: cell-based, E. coli; settings: Experiment code A; for Concentration of maximum response: strain DPD2411, LB pH 7.0; for treated RLU: strain DPD2411, at concentration of maximum response; for Ratio: strain DPD2411, treated RLU/control RLU
Source text: (§1) A derivative of E. coli strain MG1655 (obtained from Prof. Douglas Berg, Washington University School of Medicine, St. Louis, […].) with the yhcS::TN<Kan> mutation was made by P1clr100Cm mediated transduction using phage grown on strain DPD2410 as a donor and selection for kanamycin resistance. The presence of the yhcS::TN<Kan> mutation in one of the resultant transductants, named DPD2433, was confirmed by PCR amplification. Plasmid pDEW655 was moved to E. coli strains MG1655 and DPD2433 by transformation, selecting for Ampicillin resistance to generate strains DPD2436 and DPD2437, respectively. The bioluminescent response of these two strains to pHBA was tested. Aliquots (50 μl) of actively growing cultures at 37° C. in LB medium that had been previously diluted, and from overnight cultures in LB medium with 150 μg/ml Ampicillin were added to 50 μl of LB medium at pH 7.0 containing pHBA as the sodium salt form. Several concentrations of pHBA were tested.
Further characterization of the signals that trigger activation of YhcS, was done using the yhcRQP-luxCDABE gene fusion containing E. coli strains DPD2411 or DPD2436. […] Several weak, aromatic acid molecules in addition to those shown in the Examples above activated expression.

BenM = BenM (Acinetobacter baylyi, UniProt O68014); settings: benzoic acid alone; cited from earlier work
[2] = test system: yhcRQP-luxCDABE gene fusion; experiment: LuxArray bioluminescent response, strain DPD2411 (tolC- host); type: cell-based, E. coli; settings: for Replica 1 normalized RLU / Replica 2 normalized RLU: LB medium; for upregulation of gene fusion lux-a.pk035.c7 in LuxArray profile: pHCA 10 mM and 5 mM, CA 8 mM and 4 mM; for bioluminescent response of the yhcRQP-luxCDABE gene fusion (in words): time points other than the zero time point
[3] = test system: yhcRQP-luxCDABE gene fusion; experiment: Bioluminescence response in yhcS+ strain DPD2436 (MG1655 host); type: cell-based, E. coli; settings: for Concentration of maximum response: strain DPD2436, LB pH 7.0; for treated RLU: strain DPD2436, at concentration of maximum response; for Ratio: strain DPD2436, treated RLU/control RLU
Source text: as §1, with “The presence of the yhcS::TN<Kan> mutation in one of the resultant transductants, named DPD2433, was confirmed by PCR amplification.” left out
Further characterization of the signals that trigger activation of YhcS, was done using the yhcRQP-luxCDABE gene fusion containing E. coli strains DPD2411 or DPD2436.

[4] = test system: lysU-luxCDABE gene fusion; settings: for activation of acid responsive lysU-luxCDABE gene fusion (in words): concentrations tested, 100 minutes; for RLU at 100 minutes: lysU-luxCDABE, pH 7.0
Source text: (§2) Three E. coli strains, each in the same host strain but carrying different, plasmid-borne, promoter-luxCDABE fusions were used. Strain DPD2411 contains a yhcRQP-luxCDABE gene fusion as described in Example 2. Strain DPD2084 contains a yciG-luxCDABE gene fusion that has been previously described. Strain DPD3282 contains a lysU-luxCDABE gene fusion that was part of the LuxA collection of gene fusions, described in Example 2. The plasmid in this strain, pDEW558, contains an E. coli chromosomal segment between nucleotides 4350990 and 4353107 according to the E. coli genomic sequence; the orientation of the chromosomal segment is such that the lysU promoter region controls expression of luxCDABE. Each of these three strains was grown overnight in Vogel-Bonner minimal medium with 0.4% glucose as the carbon source and supplemented with L-proline, L-lysine, uracil and 25 μg/ml Ampicillin. The overnight cultures were diluted into the same medium except lacking Ampicillin and incubated at 37° C. until in mid-exponential growth. Aliquots (50 μl) of these actively growing cultures were added to 50 μl of the same medium at pH 7.0 without Ampicillin but containing various concentrations of sodium acetate or sodium salicylate in the wells of a 96 well, white microplate (Microlite, Dynex Technologies). Immediately after adding the cell culture, the bioluminescence was quantitated in a microplate luminometer in the kinetic mode.

[5] = test system: yciG-luxCDABE gene fusion; settings: for activation of acid responsive yciG-luxCDABE gene fusion (in words): concentrations tested, 100 minutes; for RLU at 100 minutes: yciG-luxCDABE, pH 7.0
Source text: as §2

[6] = test system: yhcRQP-luxCDABE gene fusion; settings: for activation of expression of yhcRQP-luxCDABE (in words): concentrations tested, 100 minutes; for RLU at 100 minutes: yhcRQP-luxCDABE, pH 7.0
Source text: as §2

Chain of BenM (O68014 whole entry, the tested form may be a part): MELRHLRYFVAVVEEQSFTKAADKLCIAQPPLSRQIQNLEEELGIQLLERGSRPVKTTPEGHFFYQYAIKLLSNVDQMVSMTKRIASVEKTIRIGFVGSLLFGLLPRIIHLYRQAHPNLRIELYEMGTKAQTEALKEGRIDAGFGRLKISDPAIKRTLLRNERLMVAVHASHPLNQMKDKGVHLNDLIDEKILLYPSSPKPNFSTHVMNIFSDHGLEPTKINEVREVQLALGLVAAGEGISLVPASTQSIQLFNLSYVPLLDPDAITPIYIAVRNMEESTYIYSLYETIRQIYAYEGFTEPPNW

SMILES: O=C(O)c1cccc2ccccc12 [1-napthoate]
- Concentration of maximum response [1]: 2.5 mM
- treated RLU [1]: 29.662 RLU
- Ratio [1]: 132

SMILES: O=C(O)c1ccccc1 [Benzoic acid, benzoic acid]
- induction of BenM activity (BenM): minimal, if any, induction

SMILES: O=C(O)C=Cc1ccccc1 [CA, cinnamic acid]
- Replica 1 normalized RLU ([2]; 4 mM CA, 0 min): 0.026 RLU
- Replica 2 normalized RLU ([2]; 4 mM CA, 0 min): 0.062 RLU
- Replica 1 normalized RLU ([2]; 4 mM CA, 45 min): 4.092 RLU
- Replica 2 normalized RLU ([2]; 4 mM CA, 45 min): 2.928 RLU
- Replica 1 normalized RLU ([2]; 4 mM CA, 90 min): 5.845 RLU
- Replica 2 normalized RLU ([2]; 4 mM CA, 90 min): 4.951 RLU
- Replica 1 normalized RLU ([2]; 4 mM CA, 135 min): 5.394 RLU
- Replica 2 normalized RLU ([2]; 4 mM CA, 135 min): 3.678 RLU
- Replica 1 normalized RLU ([2]; 8 mM CA, 0 min): 0.022 RLU
- Replica 2 normalized RLU ([2]; 8 mM CA, 0 min): 0.054 RLU
- Replica 1 normalized RLU ([2]; 8 mM CA, 45 min): 4.937 RLU
- Replica 2 normalized RLU ([2]; 8 mM CA, 45 min): 3.405 RLU
- Replica 1 normalized RLU ([2]; 8 mM CA, 90 min): 8.379 RLU
- Replica 2 normalized RLU ([2]; 8 mM CA, 90 min): 6.193 RLU
- Replica 1 normalized RLU ([2]; 8 mM CA, 135 min): 6.981 RLU
- Replica 2 normalized RLU ([2]; 8 mM CA, 135 min): 5.746 RLU
- upregulation of gene fusion lux-a.pk035.c7 in LuxArray profile [2]: several hundred-fold upregulated
- bioluminescent response of the yhcRQP-luxCDABE gene fusion (in words) [2]: dramatic upregulation

SMILES: O=C([O-])c1ccccc1.[Na+] [Sodium benzoate]
- Concentration of maximum response ([3]; Experiment code B): 6.2 mM
- treated RLU ([3]; Experiment code B): 3.759 RLU
- Ratio ([3]; Experiment code B): 13
- Concentration of maximum response ([3]; Experiment code C): 12.5 mM
- treated RLU ([3]; Experiment code C): 8.093 RLU
- Ratio ([3]; Experiment code C): 12

SMILES: O=C([O-])c1ccc(O)cc1.[Na+] [Sodium pHBA]
- Concentration of maximum response ([3]; Experiment code C): 50 mM
- treated RLU ([3]; Experiment code C): 91.658 RLU
- Ratio ([3]; Experiment code C): 145
- Concentration of maximum response ([3]; Experiment code D): 50 mM
- treated RLU ([3]; Experiment code D): 48.643 RLU
- Ratio ([3]; Experiment code D): 248
- Concentration of maximum response [1]: 25 mM
- treated RLU [1]: 69.678 RLU
- Ratio [1]: 302

SMILES: O=C([O-])c1ccccc1O.[Na+] [Sodium salicylate]
- Concentration of maximum response ([3]; Experiment code D): 6.2 mM
- treated RLU ([3]; Experiment code D): 14.703 RLU
- Ratio ([3]; Experiment code D): 77
- activation of acid responsive lysU-luxCDABE gene fusion (in words) [4]: did not increase expression
- RLU at 100 minutes ([4]; 0.6 mM salicylate): 1.3 RLU
- RLU at 100 minutes ([4]; 5.0 mM salicylate): 0.89 RLU
- activation of acid responsive yciG-luxCDABE gene fusion (in words) [5]: did not increase expression
- RLU at 100 minutes ([5]; 0.6 mM salicylate): 0.19 RLU
- RLU at 100 minutes ([5]; 5.0 mM salicylate): 0.13 RLU
- activation of expression of yhcRQP-luxCDABE (in words) [6]: upregulated expression
- RLU at 100 minutes ([6]; 0.6 mM salicylate): 7.9 RLU
- RLU at 100 minutes ([6]; 5.0 mM salicylate): 26.0 RLU

SMILES: CC(=O)[O-].[Na+] [acetate, sodium acetate]
- activation of acid responsive lysU-luxCDABE gene fusion (in words) [4]: did activate
- RLU at 100 minutes ([4]; 80 mM acetate): 1.4 RLU
- RLU at 100 minutes ([4]; 160 mM acetate): 6.0 RLU
- activation of acid responsive yciG-luxCDABE gene fusion (in words) [5]: did activate
- RLU at 100 minutes ([5]; 80 mM acetate): 0.35 RLU
- RLU at 100 minutes ([5]; 160 mM acetate): 0.80 RLU
- activation of expression of yhcRQP-luxCDABE (in words) [6]: did not activate expression
- RLU at 100 minutes ([6]; 80 mM acetate): 0.14 RLU
- RLU at 100 minutes ([6]; 160 mM acetate): 0.08 RLU

SMILES: CCO [ethanol]
- Replica 1 normalized RLU ([2]; 3% ethanol, 0 min): 0.024 RLU
- Replica 2 normalized RLU ([2]; 3% ethanol, 0 min): 0.038 RLU
- Replica 1 normalized RLU ([2]; 3% ethanol, 45 min): 0.024 RLU
- Replica 2 normalized RLU ([2]; 3% ethanol, 45 min): 0.029 RLU
- Replica 1 normalized RLU ([2]; 3% ethanol, 90 min): 0.022 RLU
- Replica 2 normalized RLU ([2]; 3% ethanol, 90 min): 0.026 RLU
- Replica 1 normalized RLU ([2]; 3% ethanol, 135 min): 0.012 RLU
- Replica 2 normalized RLU ([2]; 3% ethanol, 135 min): 0.014 RLU
- Replica 1 normalized RLU ([2]; 5% ethanol, 0 min): 0.022 RLU
- Replica 2 normalized RLU ([2]; 5% ethanol, 0 min): 0.037 RLU
- Replica 1 normalized RLU ([2]; 5% ethanol, 45 min): 0.014 RLU
- Replica 2 normalized RLU ([2]; 5% ethanol, 45 min): 0.017 RLU
- Replica 1 normalized RLU ([2]; 5% ethanol, 90 min): 0.022 RLU
- Replica 2 normalized RLU ([2]; 5% ethanol, 90 min): 0.017 RLU
- Replica 1 normalized RLU ([2]; 5% ethanol, 135 min): 0.015 RLU
- Replica 2 normalized RLU ([2]; 5% ethanol, 135 min): 0.014 RLU
- bioluminescent response of the yhcRQP-luxCDABE gene fusion (in words) [2]: does not induce increased bioluminescence

SMILES: O=C(O)C=Cc1ccc(O)cc1 [pHCA, para-hydroxycinnamic acid]
- Replica 1 normalized RLU ([2]; 5 mM pHCA, 0 min): 0.056 RLU
- Replica 2 normalized RLU ([2]; 5 mM pHCA, 0 min): 0.043 RLU
- Replica 1 normalized RLU ([2]; 5 mM pHCA, 45 min): 10.695 RLU
- Replica 2 normalized RLU ([2]; 5 mM pHCA, 45 min): 9.325 RLU
- Replica 1 normalized RLU ([2]; 5 mM pHCA, 90 min): 14.276 RLU
- Replica 2 normalized RLU ([2]; 5 mM pHCA, 90 min): 14.754 RLU
- Replica 1 normalized RLU ([2]; 5 mM pHCA, 135 min): 13.533 RLU
- Replica 2 normalized RLU ([2]; 5 mM pHCA, 135 min): 10.587 RLU
- Replica 1 normalized RLU ([2]; 10 mM pHCA, 0 min): 0.056 RLU
- Replica 2 normalized RLU ([2]; 10 mM pHCA, 0 min): 0.034 RLU
- Replica 1 normalized RLU ([2]; 10 mM pHCA, 45 min): 9.094 RLU
- Replica 2 normalized RLU ([2]; 10 mM pHCA, 45 min): 7.31 RLU
- Replica 1 normalized RLU ([2]; 10 mM pHCA, 90 min): 14.314 RLU
- Replica 2 normalized RLU ([2]; 10 mM pHCA, 90 min): 11.164 RLU
- Replica 1 normalized RLU ([2]; 10 mM pHCA, 135 min): 15.283 RLU
- Replica 2 normalized RLU ([2]; 10 mM pHCA, 135 min): 12.867 RLU
- upregulation of gene fusion lux-a.pk035.c7 in LuxArray profile [2]: several hundred-fold upregulated
- bioluminescent response of the yhcRQP-luxCDABE gene fusion (in words) [2]: dramatic upregulation
